From US20100022526A1, “PYRIDAZINE DERIVATIVES, PROCESSES FOR THEIR PREPARATION AND THEIR USE AS FUNGICIDES” (SYNGENTA CROP PROTECTION, INC., priority 2007, published 2010)

How the values were obtained:
Alternaria solani = assay: Alternaria solani/tomato/Preventive (Action against Alternaria on Tomato); format: in vivo; settings: preventive spray, tomato plants cv. Roter Gnom, inoculated two days after application, assessed after 4 days, untreated controls infected over 80%, read-out: inhibit fungal infestation
Procedure: (§1) Alternaria solani/tomato/Preventive (Action against Alternaria on Tomato) 4 weeks old tomato plants cv. Roter Gnom are treated with the formulated test compound in a spray chamber. Two days after application tomato plants are inoculated by spraying a spore suspension on the test plants. After an incubation period of 4 days at 22° C./18° C. and 95% r. h. in a greenhouse the disease incidence is assessed.

Botrytis cinerea = assay: Botrytis cinerea/tomato/preventive (Action against Botrytis on Tomato); format: in vivo; settings: preventive spray, tomato plants cv. Roter Gnom, inoculated two days after application, assessed after 3 days, untreated controls infected over 80%, read-out: inhibit fungal infestation
Procedure: as §1, with “Botrytis cinerea/tomato/preventive (Action” for “Alternaria solani/tomato/Preventive (Action”, “against Botrytis” for “against Alternaria”, “of 3” for “of 4”, “at 20°” for “at 22° C./18°”

Puccinia recondita = assay: Puccinia recondita/wheat/preventive (Action against Brown Rust on Wheat); format: in vivo; settings: preventive spray, wheat plants cv. Arina, inoculated one day after application, assessed 11 days after inoculation, untreated controls infected over 80%, read-out: inhibits fungal infestation
Procedure: Puccinia recondita/wheat/preventive (Action against Brown Rust on Wheat) 1 week old wheat plants cv. Arina are treated with the formulated test compound in a spray chamber. One day after application wheat plants are inoculated by spraying a spore suspension (1×105 uredospores/ml) on the test plants. After an incubation period of 1 day at 20° C. and 95% r. h. plants are kept for 10 days 20° C./18° C. (day/night) and 60% r.h. in a greenhouse. The disease incidence is assessed 11 days after inoculation.

[1] = test system: Magnaporthe grisea (Pyricularia oryzae); assay: whole plant or invertebrate; format: in vivo; settings: read-out: inhibit fungal infestation
[2] = test system: Pyrenophora teres (Helminthosporium teres); assay: Pyrenophora teres (Helminthosporium teres)/barley/preventive (Action against Net Blotch on Barley); format: in vivo; settings: preventive spray, barley plants cv. Regina, inoculated two days after application, assessed after 4 days, untreated controls infected over 80%, read-out: inhibit fungal infestation
Procedure: Pyrenophora teres (Helminthosporium teres)/barley/preventive (Action against Net Blotch on Barley) 1-week-old barley plants cv. Regina are treated with the formulated test compound in a spray chamber. Two days after application barley plants are inoculated by spraying a spore suspension (2.6×10^4 conidia/ml) on the test plants. After an incubation period of 4 days at 20° C. and 95% r. h. the disease incidence is assessed.

Septoria tritici = assay: Sentoria tritici/wheat/Preventive (Action against Septoria Leaf Spot on Wheat); format: in vivo; settings: Zymoseptoria tritici, preventive spray, wheat plants cv. Riband, inoculated one day after application, assessed 16-18 days after inoculation, untreated controls infected over 80%, read-out: inhibits fungal infestation
Procedure: Sentoria tritici/wheat/Preventive (Action against Septoria Leaf Spot on Wheat) 2 weeks old wheat plants cv. Riband are treated with the formulated test compound in a spray chamber. One day after application wheat plants are inoculated by spraying a spore suspension (10^6 conidia/ml) on the test plants. After an incubation period of 1 day at 22° C./21° C. and 95% r. h. plants are kept at 22° C./21° C. and 70% r.h. in a greenhouse. The disease incidence is assessed 16-18 days after inoculation.

Uncinula necator = assay: Uncinula necator/grape/preventive (Action against Powdery Mildew on Grape); format: in vivo; settings: Erysiphe necator, preventive spray, grape seedlings cv. Gutedel, inoculated one day after application, assessed after 7 days, untreated controls infected over 80%, read-out: inhibit fungal infestation
Procedure: Uncinula necator/grape/preventive (Action against Powdery Mildew on Grape) 5 weeks old grape seedlings cv. Gutedel are treated with the formulated test compound in a spray chamber. One day after application grape plants are inoculated by shaking plants infected with grape powdery mildew above the test plants. After an incubation period of 7 days at 24° C./22° C. and 70% r. h. under a light regime of 14/10 h (light/dark) the disease incidence is assessed.

In the case of COc1nnc(Cl)c(-c2c(F)cc(F)cc2F)c1-c1ccc(Br)cc1 [I.l. 199, 4-(4-bromophenyl)-6-chloro-3-methoxy-5-(2,4,6-trifluorophenyl)-pyridazine], the inhibition at 200 ppm (Alternaria solani) is reported as no less than 80%, the inhibition at 200 ppm (Botrytis cinerea) is reported as no less than 80% and the inhibition at 200 ppm (Puccinia recondita) is reported as no less than 80%. It also gave an inhibition at 200 ppm [1] of no less than 80%, an inhibition at 200 ppm [2] of no less than 80% and an inhibition at 200 ppm (Septoria tritici) of no less than 80%. It also gave an inhibition at 200 ppm (Uncinula necator) of no less than 80% and a melting point of 113 to 119 °C.
